In patent publication US11241579B2, “Monitoring and modulation of parasympathetic nervous system” (THE REGENTS OF THE UNIVERSITY OF CALIFORNIA, priority 2016, dated 2022):

Tests used:
[1] = tested on: MNS-induced AF; settings: cited from earlier work; for effect on MNS-induced AF: previous work
[2] = tested on: intrinsic cardiac (IC) neurons; test: evoked action potentials of intrinsic cardiac neurons after local drug application (intracellular recording); format: cell-based, guinea pig; settings: 10^-3 M, 1- to 2-s local pressure ejection; across all groups (control, PO, PO+RCV, PO+LCV)
Experimental: Intracellular voltage recordings from IC neurons derived from explanted IC ganglia placed in 35-37° C. Krebs-Ringer solution were obtained by impaling cells with 3 M KCl-filled glass micropipettes (40- to 80-Me resistance) using an Axoclamp 2B amplifier (Molecular Devices). Data were collected, digitized, and analyzed using pClamp 10.2 (Molecular Devices). Individual neurons were used for data analysis if their resting membrane potential (RMP) was −40 mV or less and produced action potentials (APs) with an overshoot of >20 mV. Input resistance was determined using 0.1- and 0.2-nA pulses (500 ms). Neuronal soma excitability was monitored by observing the response to a series of long depolarizing current pulses (0.1-0.6 nA, 500 ms). The number of evoked APs vs. stimulus intensity was determined to assess relative changes in excitability. Afterhyperpolarization (AHP) durations were analyzed to determine the time to reach 50% of the amplitude from the peak of the AHP to the RMP.
For each cell, after characterization of the basic electrophysiological properties, induced changes in the number of evoked APs by depolarizing pulses were again assessed immediately following a 1- to 2-s application of NE (10^-3 M; Sigma) or bethanechol (a muscarinic agonist, 10^-3 M; Sigma). […]

| Compound | effect on MNS-induced AF [1] | also measured |
| --- | --- | --- |
| C[N+](C)(C)CCCCCC[N+](C)(C)C [Hexamethonium] |  | number of AF responses to MNS stimulation ([1]; posttreatment, from 90% baseline): 10% |
| NC[C@H](O)c1ccc(O)c(O)c1 [NE, norepinephrine] |  | changes in IC neuronal sensitivity elicited by local application [2]: less than that elicited by bethanecol |
| CN1[C@@H]2CC[C@H]1C[C@@H](OC(=O)C(CO)c1ccccc1)C2 (stereo partly shown) [atropine] | eliminated |  |
| CC(C)(C)NC[C@H](O)COc1nsnc1N1CCOCC1 [timolol] | modified |  |
